In ChEMBL document CHEMBL3137667, “[Drug-induced liver injury; fourteenth updated edition of the bibliographic database of liver injuries and related drugs]” (Gastroenterol Clin Biol, 2004):

Key:
[1] = Highest frequency of moderate liver toxicity observed during clinical trials, expressed as a percentage. [column '% BIOL' in source]; conditions: human
[2] = Highest frequency of acute liver toxicity observed during clinical trials, expressed as a percentage. [column '% AIGUE' in source]; conditions: human
[3] = Proposed mechanism(s) of liver damage. [column 'MEC' in source]; conditions: human
[4] = human, serum
[5] = human, serum; remark: listed apart in the source
[6] = human
[7] = human; remark: listed apart in the source
[8] = human; remark: listed apart in the source
[9] = human, serum, 4383 h
[10] = human; remark: listed apart in the source
[11] = human; remark: listed apart in the source
[12] = human; remark: listed apart in the source
[13] = human; remark: listed apart in the source
[14] = human; remark: listed apart in the source
[15] = human; remark: listed apart in the source
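For Hepatotoxicity (association with vascular disease) in this document: count of indexed literature references reporting vascular liver injury in humans, e.g. peliosis hepatitis, hepatic veno-occlusive disease or Budd-Chiari syndrome.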
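For Hepatotoxicity (benign tumour) in this document: value is a count of indexed literature references citing a benign tumour confirmed by histopathology.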
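For Hepatotoxicity (choleostasis) in this document: human cholestatic liver injury, shown by histopathology or by peak ALT or AST elevation over alkaline phosphatase ratio below 2, value counts indexed literature reports.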
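For Hepatotoxicity (chronic liver disease) in this document: chronic liver injury confirmed by histopathology or persistently raised serum aminotransferase activity beyond 6 months, value given as the count of indexed literature references.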
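For Hepatotoxicity (cirrhosis) in this document: value is a count of indexed literature references reporting cirrhosis confirmed by histopathology.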
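For Hepatotoxicity (cytolytic) in this document: human cytolytic liver injury, shown by histopathology or by a ratio above 5 of peak ALT or AST elevation to alkaline phosphatase elevation, value counts indexed references.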
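For Hepatotoxicity (granulomatous hepatitis) in this document: value is a count of indexed literature references reporting granulomatous liver disease confirmed by histopathology.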
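For Hepatotoxicity (malignant tumour) in this document: malignant tumour confirmed by histopathology, value gives the count of indexed literature references reporting it.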
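For Hepatotoxicity (severe hepatitis) in this document: human clinical data: severe hepatitis, meaning potentially life-threatening liver failure or clinically observed cases, the value counts how many indexed literature references report it.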
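For Hepatotoxicity (steatosis) in this document: steatosis confirmed by histopathology, value is the count of indexed references.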

| Compound | Hepatotoxicity (moderate) [1] [%] | Hepatotoxicity (acute) [2] [%] | Hepatotoxicity (mechanism) [3] | Hepatotoxicity (moderate) [4] | Hepatotoxicity (acute) [5] | Hepatotoxicity (cytolytic) [6] | Hepatotoxicity (choleostasis) [7] | Hepatotoxicity (severe hepatitis) [8] | Hepatotoxicity (chronic liver disease) [9] | Hepatotoxicity (cirrhosis) [10] | Hepatotoxicity (granulomatous hepatitis) [11] | Hepatotoxicity (association with vascular disease) [12] | Hepatotoxicity (steatosis) [13] | Hepatotoxicity (malignant tumour) [14] | Hepatotoxicity (benign tumour) [15] | also measured |
| --- | --- | --- | --- | --- | --- | --- | --- | --- | --- | --- | --- | --- | --- | --- | --- | --- |
| PEGLOTICASE | 3.7 | 0 | Dose-dependant | 1 | 0 | 0 | 0 | 0 | 0 | 0 | 0 | 0 | 0 | 0 | 0 | – |
| INTERLEUKIN 6 | 55 | 0 | Dose-dependant | 9 | 2 | 0 | 1 | 0 | 0 | 0 | 0 | 0 | 0 | 0 | 0 | – |
| CNCCNc1ccc2c3c(nn2CCNCCO)-c2c(O)ccc(O)c2C(=O)c13 [TELOXANTRONE] | 36.8 | 10.5 | Dose-dependant | 2 | 1 | 1 | 1 | 0 | 0 | 0 | 0 | 0 | 0 | 0 | 0 | – |
| CO[C@@H]1[C@@H](OC(N)=O)[C@@H](O)[C@H](Oc2ccc3c(O)c(NC(=O)c4ccc(O)c(CC=C(C)C)c4)c(=O)oc3c2C)OC1(C)C [NOVOBIOCIN] | 40 | 0 | Allergic, Dose-dependant | 2 | 5 | 2 | 3 | 2 | 0 | 0 | 0 | 0 | 0 | 0 | 0 | – |
| CC1(C)S[C@@H]2[C@H](NC(=O)C(c3ccccc3)S(=O)(=O)O)C(=O)N2[C@H]1C(=O)O (stereo not given in full) [SULBENICILLIN] | 6.7 | 1 | Allergic | 3 | 3 | 0 | 2 | 0 | 0 | 0 | 0 | 0 | 0 | 0 | 0 | – |
| CCCCCCCCCCCCCCCCSCC(COC)COP(=O)([O-])OCC[N+](C)(C)C (stereo not given) [ILMOFOSINE] | 71.4 | 0 | Dose-dependant | 5 | 0 | 0 | 0 | 0 | 0 | 0 | 0 | 0 | 0 | 0 | 0 | – |
| [H]/N=C(/N)N[C@H]1[C@H](O)[C@@H](O)[C@H](O[C@@H]2O[C@@H](C)[C@](O)(C=O)[C@H]2O[C@@H]2O[C@@H](CO)[C@H](O)[C@@H](O)[C@@H]2NC)[C@@H](N/C(N)=N\[H])[C@@H]1O [STREPTOMYCIN] | – | – | – | 1 | 4 | – | – | – | 0 | 0 | – | 0 | 0 | 0 | 0 | Hepatotoxicity (moderate) ([1]; Liver): 0%; Hepatotoxicity (acute) ([2]; Liver): 0%; Hepatotoxicity (mechanism) ([3]; Liver): Allergic; Hepatotoxicity (cytolytic) ([6]; Liver): 2; Hepatotoxicity (choleostasis) ([7]; Liver): 1; Hepatotoxicity (severe hepatitis) ([8]; Liver): 0; Hepatotoxicity (granulomatous hepatitis) ([11]; Liver): 0 |
| O=C(Cn1c(=O)sc2ccc(Cl)cc21)N1CCN(CCO)CC1 [TIARAMIDE] | 0 | 0 | Allergic | 0 | 1 | 1 | 1 | 0 | 0 | 0 | 0 | 0 | 0 | 0 | 0 | – |
